Patent publication US9777123B2, “Sulfated beta-O4 low molecular weight lignins” (VIRGINIA COMMONWEALTH UNIVERSITY, priority 2013, dated 2017)

Target: T1, SbO4L-thrombin complex (Homo sapiens, UniProt P00734)
T1 construct: purchased Haematologic Technologies, Sigma-Aldrich or Elastin Products Company (not assigned per protease)
Assay: Protamine-mediated reversal of SbO4L inhibition of thrombin
Type: biochemical
Description: FIG. 8. Protamine-mediated reversal of SbO4L inhibition of thrombin. Recovery of thrombin activity at varying levels of protamine following 50% inhibition by SbO4L was measured through the Spectrozyme TH hydrolysis assay at pH 7.4. Solid line represents non-linear fit of the data by a logistic function similar to equation 1 to obtain the RC50, the concentration of protamine necessary to recover 50% thrombin activity.
A major advantage of heparin therapy is its amenability to protamine-based reversal. It is also one of the reasons why fondaparinux continues to suffer because its iatrogenic bleeding is difficult to reverse rapidly. To test whether SbO4L inhibition of thrombin can be reversed, we studied the recovery of thrombin activity following successive introduction of protamine. […] The protamine-mediated recovery profile essentially mirrors the SbO4L-induced inhibition profile. More importantly, the level of recovery is quantitative at high enough protamine concentrations. Further, the recovery was instantaneous as no extended incubation was necessary to observe reversal. The concentration of protamine necessary to recover 50% thrombin activity, i.e., RC50, could be calculated using an equation similar to the logistic equation 1 used for inhibition studies and found to be ˜0.1 μg/ml, […] for SbO4L inhibition of thrombin.

RC50 relative to IC50 (fold higher): 5 fold | RC50, concentration of protamine necessary to recover 50% thrombin activity (after 50% inhibition by SbO4L, pH 7.4, 37° C.): ~0.1 µg/mL | thrombin activity restored (chromogenic test systems): 100% | effect of protamine alone on thrombin activity (controls without SbO4L): did not affect the activity of thrombin
Substance: protamine
